Experimental data from patent US8110365B2, “Compositions and methods for detecting and treating renal injury and inflammation” (Rhode Island Hospital, priority 2006, dated 2012).
Entries after “also recorded” stand apart in the source; their conditions may differ.

Tests used:
E-selectin = assay: TNF-α induced E-selectin expression in HUVEC; format: cell-based, human
MCP-1 and RANTES [1] = assay: TNF-α induced chemokine (MCP-1, RANTES) expression in HKC cells; format: cell-based, human
Protocol: In certain embodiments, Enzyme-linked Immunosorbent assay (ELISA) is used to evaluate GSK3b proten level. For example, rat kidneys were homogenized in RIPA [1% Nonidet P-40, 0.1% SDS, 100ug/ml phenylmethysulfonyl fluoride (PMSF), 0.5% sodium deoxycholate, 1 mM sodium orthovanadate, 2 ug/ml aprotin, 2 ug/ml leupeptin, 5 mM EDTA in PBS] buffer. Chemokine levels in homogenates of equal amounts of total protein were measured using specific sandwich enzyme immunometric assay kits for rat. Chemokines in conditioned media from HKC were determined by specific sandwich ELISA kits for human (R&D Systems) according to the manufacturer's instructions. Results were normalized for protein amounts in kidney homogenates, or for cell number in cultures.
(§1) Human proximal TEC (HKC-8) (courtesy of Dr. L. Racusen of John Hopkins University, Baltimore, Md.) were maintained in Dulbecco's modified Eagle's medium (DMEM)/F12 supplemented with 5% fetal bovine serum (FBS). Cells were plated at approximately 70% confluence in the media containing 5% FBS for 24 h and then underwent serum starvation for another 24 h. Human recombinant HGF and human recombinant TNF-α (R&D systems, Minneapolis, Minn.) were added to the culture with fresh serum-free medium at a final concentration of 20 ng/ml and 2 ng/ml respectively, or otherwise as indicated. Cell viability was assessed by Trypan blue exclusion. At different time points, cells and conditioned media were harvested for further investigation.

remnant kidney rats = assay: Rat remnant kidney model (5/6 nephrectomy); format: in vivo; conditions: for inflammation and injury in remnant kidneys: rats, treatment for 2 wk beginning 2 wk after nephrectomy
Description: We examined the molecular mechanism of HGF's anti-inflammatory actions in a model of CKD. Beginning 2 wk after ⅚^th nephrectomy, rats received exogenous HGF, neutralization of endogenous HGF by daily injection of an anti-HGF antibody, or preimmune IgG for 2 wk. […] There were parallel alterations in endothelial activation and inflammation, marked by de novo E-selectin expression and leukocyte adhesion to renal vascular endothelium. […] Thus, the GSK3b inhibitor HGF has direct anti-inflammatory effects via suppression of NF-KB and endothelial inflammation.

NF-κB = assay: Gel shift assay of HKC nuclear extract with NF-κB consensus sequence; format: cell-based, human; conditions: HKC cells, 4 h
NFkB p65 = assay: ChIP of NFkB p65 at MCP-1 and RANTES promoters in HKC cells; format: cell-based, human
Description: The in situ interaction between NFκB and its target genes in HKC cells was examined by ChIP assay (35) using a commercially available kit (Upstate Biotechnology, Charlottesville, Va.) according to manufacturer's instructions. Briefly, HKC cells were fixed and crosslinked with 4% formaldehyde. After collection of cell pellets and sonication, aliquots of the samples were set aside as input fraction and the rest subjected to immunoprecipitation using an anti-NFκB p65 antibody or preimmune IgG and Protein A agarose used to pull down the immune complexes. After elution, precipitated chromatin as well as the input fraction was heated at 65° C. to reverse crosslinks and the DNA extracted with Qiagen PCR purification kit (Qiagen, Valencia, Calif.). DNA sequences spanning the κB responsive elements in the promoter region were amplified by PCR using specific primers (MCP-1, forward 5′-[…]-3′ (SEQ ID NO: 1), reverse 5′-[…]-3′(SEQ ID NO: 2), Genbank accession number Y18933; RANTES, forward 5′-[…]-3′ (SEQ ID NO: 3), reverse 5′-[…]-3′ (SEQ ID NO: 4), Genbank accession number S64885) for a number of cycles in the exponential phase as estimated in pilot experiments. DNA samples extracted from input fractions were amplified in parallel for normalization. PCR products resolved in ˜1.5 to 2% agarose gels were photographed under ultraviolet light.

MCP-1 and RANTES [2] = assay: Chemokine expression in immortalized rat proximal tubular cells (IRPTC); format: cell-based
GSK3b [3] = target: T1, GSK3b (Rattus norvegicus, UniProt P18266); assay: Renal GSK3b expression in the kidney; format: in vivo
T1 construct: from tissue; host or cells: rat kidney (homogenate)
Protocol: In certain embodiments, measurement of GSK level and activity in tissue samples is carried out as follows. Total expression of GSK3b, is measured by western immunoblot in kidney homogenates using a commercially available mouse monoclonal antibody against rat GSK3b (Santa Cruz Biotechology). Densitometric analysis of immunoblot bands is used to compare protein abundance of GSK3b in remnant kidneys and controls at each time point.

NF-kB and IkB = NF-kB and IkB phosphorylation and IkB degradation in endothelial cells; format: cell-based
Protocol: In certain embodiments, NF-kB p65 phosphorylation is assessed as follows. Cell lysates with equal amounts of total protein are immunoblotted for phosphorylated NF-kB p65 or total p65. Anti-phosphorylated NF-kB p65 antibody is commercially available, e.g., from Cell Signaling, MA. Densitometric results of phosphorylated NF-kB p65 and total p65 bands as well as the ratio of pp65/p65 are compared between different transfections at different time points.
In certain embodiments, IkB phosphorylation and degradation is evaluated as follows. Cell lysates with equal amounts of total protein are immunoblotted for phosphorylated IkBa (anti-phosphorylated IkBa antibody is available from Cell Signaling. MA) or total IkBa. Densitometric results of phosphorylated IkBa and total IkBa bands are compared across the different treatments and time points.

GSK3b [4] = target: GSK3b (Homo sapiens, UniProt P49841); assay: Inhibitory phosphorylation of GSK3b in HKC cells (immunoblot); format: cell-based; design: endogenous in cells; host or cells: HKC-8
Protocol: as §1
After different treatments, HKC cells were washed with PBS and lysed with RIPA buffer supplemented with protease inhibitors [1% Nonidet P-40, 0.1% SDS, 100 ug/ml phenylmethysulfonyl fluoride (PMSF), 0.5% sodium deoxycholate, ImM sodium orthovanadate, 2 ug/ml aprotin, 2 ug/ml leupeptin, 5mM EDTA in PBS]. Protein concentration was determined by using a bicinchoninic acid protein assay kit (Sigma). All samples with equal amounts of total protein (50 ug/ml) were fractionated by 7.5˜15% SDS-polyacrylamide gels under reducing condition and analyzed by western immunoblot as described previously (30). The antibodies against p-GSK3b, p-NFkB p65, p-IkBa were purchased from Cell Signaling Technology (Beverly, Mass.) and those for GSK3b, hemagglutin were from Santa Cruz Biotechnology (Santa Cruz, Calif.).

GSK3b (Homo sapiens, UniProt P49841), sequence (P49841 whole entry): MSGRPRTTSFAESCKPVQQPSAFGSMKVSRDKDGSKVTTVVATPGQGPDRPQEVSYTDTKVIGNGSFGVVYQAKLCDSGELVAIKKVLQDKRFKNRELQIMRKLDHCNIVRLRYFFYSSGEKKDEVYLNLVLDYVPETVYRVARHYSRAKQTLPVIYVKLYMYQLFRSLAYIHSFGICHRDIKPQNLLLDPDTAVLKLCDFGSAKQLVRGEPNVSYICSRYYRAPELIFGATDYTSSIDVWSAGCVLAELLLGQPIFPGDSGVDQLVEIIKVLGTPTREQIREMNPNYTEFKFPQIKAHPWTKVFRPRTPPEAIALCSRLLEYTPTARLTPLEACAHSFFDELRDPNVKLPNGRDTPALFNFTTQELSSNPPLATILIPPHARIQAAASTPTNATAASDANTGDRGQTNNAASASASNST
T1 sequence (P18266 whole entry): as the sequence (P49841 whole entry) above, with V240M, T390P, T392A, A400T, T402A counted along it

With “HGF: Human recombinant HGF (R&D systems); induces inhibitory phosphorylation of GSK3b” the “HGF inhibition of TNF-a induced E-selectin expression” value (E-selectin; HUVEC expressing uninhibitable mutant S9A-GSK3b) was “abolished HGF suppression of E-selectin; also recorded: abolished the suppressive action of HGF; also recorded: abolishes HGF inhibition of endothelial E-selectin”, the “HGF inhibition of TNF-a induced E-selectin expression” value (E-selectin; HUVEC transfected with pcDNA3 or HA-WT-GSK3b) was “HGF inhibition of E-selectin expression was evident” and the “TNF-α induced E-selectin expression” value (E-selectin; HUVEC, lithium 20 mM, HGF 100 ng/ml, TNF-a 0.5 ng/ml) was “suppressed endothelial expression of E-selectin; also recorded: suppressed TNF-α-induced expression of E-selectin; also recorded: attenuates TNF-α elicited E-selectin expression; also recorded: attenuates TNF-a (0.5 ng/ml) elicited E-selectin expression”. The “HGF inhibition of chemokine (RANTES, MCP-1) expression” value (MCP-1 and RANTES [1]; HKC cells expressing uninhibitable mutant S9A-GSK3b) was “abolished HGF inhibition of basal and TNF-α stimulated RANTES expression; also recorded: abolished HGF suppression of E-selectin; also recorded: abolishes HGF's inhibitory effect”, the “HGF inhibition of chemokine (RANTES, MCP-1) expression” value (MCP-1 and RANTES [1]; HKC cells transfected with pcDNA3 or WT-GSK3b) was “did not alter the inhibitory action of HGF on RANTES; also recorded: HGF inhibition of chemokine expression was evident” and the “basal and TNF-α induced chemokine (RANTES, MCP-1) expression” value (MCP-1 and RANTES [1]; HKC cells, lithium 20 mM, HGF 20 ng/ml, TNF-a 2 ng/ml) was “suppresses basal and TNF-α-induced expression of RANTES in a time and dose dependent fashion; also recorded: suppressed MCP-1 and RANTES in a time and dose dependent manner; also recorded: blocked this induction; also recorded: attenuates TNF-α elicited chemokine expression; also recorded: attenuates TNF-a (2 ng/ml) elicited chemokine expression”. For the same substance, the “sequestration of circulating macrophages in the remnant kidney” value (remnant kidney rats; exogenous HGF) was “markedly diminished sequestration of circulating macrophages in the remnant kidney”, the “inflammation and injury in remnant kidneys” value (remnant kidney rats) was “ameliorated; also recorded: reduces inflammatory infiltration, tubular and glomerular injury” and the “inflammation and injury in remnant kidneys” value (remnant kidney rats; listed as hepatocyte growth factor) was “profoundly ameliorating gross renal inflammation”. The “expression of metalloproteinase-9 (MMP-9)” value (remnant kidney rats; remnant kidney rats) was “increasing expression of metalloproteinase-9 (MMP-9)”, the “expression of transforming growth factor-beta (TGF-β)” value (remnant kidney rats; remnant kidney rats) was “did not reduce expression of transforming growth factor-beta (TGF-β)” and the “levels of PAI-1 and TIMP-1” value (remnant kidney rats; remnant kidney rats) was “decreasing levels of plasminogen activator inhibitor-1 (PAI-1) and tissue inhibitor of metalloproteinase-1 (TIMP-1)”. The “renal / tubular expression of proinflammatory molecules (MCP-1, RANTES, E-selectin)” value (remnant kidney rats; remnant kidney rats) was “decreased staining to normal”, the interstitial injury (remnant kidney rats; remnant kidney rats with established renal injury) was “reduced interstitial injury” and the “decrease of interstitial macrophages” value (remnant kidney rats; remnant kidney rats, continuous infusion for two weeks) was “more than 50%”. For the same substance, the “renal / tubular expression of proinflammatory molecules (MCP-1, RANTES, E-selectin)” value (remnant kidney rats; remnant kidney rats, listed as hepatocyte growth factor) was “reduced renal expression of proinflammatory molecules such as RANTES, and E-selectin”, the “TNF-α induced binding of nuclear extract to NF-κB consensus oligonucleotides” value (NF-κB) was “markedly blunted by HGF; also recorded: attenuated by HGF” and the “TNF-a induced recruitment of NFkB p65 to MCP-1 and RANTES promoters” value (NFkB p65) was “substantially attenuated by concomitant HGF treatment; also recorded: markedly attenuated”. For the same substance, the “basal and TNF-α induced expression of MCP-1 and RANTES” value (MCP-1 and RANTES [2]) was “suppressed basal and TNF-α induced expression of MCP-1 and RANTES”, the “renal GSK3b expression” value (GSK3b [3]) was “markedly decreased GSK3b expression” and the “NF-kB and IkB phosphorylation and IkB degradation” value (NF-kB and IkB) was “inhibition of NF-kB and IkB phosphorylation and IkB degradation”. For the same substance, the “inhibitory phosphorylation of GSK3b (S9)” value (GSK3b [4]) was “inhibited GSK3, by phosphorylation at Ser-9; also recorded: induce GSK3b phosphorylation at Ser9; also recorded: induces inhibitory phosphorylation of GSK3b at S9”.
